Legend:
P. aeruginosa = P. aeruginosa growth kinetics (spectrophotometric analysis at 600 nm); format: cell-based, Pseudomonas aeruginosa; settings: 2 mM compound, followed over 26 hours at 600 nm (FIG. 4)
From the text: P. aeruginosa strains include wild-type (PA14, see Rahme et al., Science 268:1899-1902, 1995); a PA14 mvfR mutant (Cao et al., Proc. Natl. Acad. Sci. USA 98:14613-14618, 2001); a pqsE deletion mutant, generated via pEX18Ap allelic replacement by using sucrose selection (Hoang et al., Gene 212:77-86, 1998), resulting in a 570-bp nonpolar deletion covering 65% of the sequence (Déziel et al. PNAS); and the pqsA (U479) TnphoA mutant obtained from the PA14 Transposon Insertion Mutant Database. Bacteria were grown in LB broth or on 1.5% Bacto-agar (Difco) LB plates. Freshly plated cells served as inoculum.
P. aeruginosa was grown in the presence of 2 mM of 2′-aminoacetophenone (2AA), 3′-aminoacetophenone (3AA), 4′-aminoacetophenone (4AA), or 2′-nitroacetophenone (2NA), or in the absence of any of these compounds (control). Bacterial growth was followed over 26 hours by spectrophotometric analysis at 600 nm.
Bacterial growth was also followed over 35 hours by spectrophotometric analysis at 600 nm.

[1] = system: 4-hydroxy-2-alkylquinoline (HAQ) production; format: cell-based, Pseudomonas aeruginosa
PA14 = experiment: Neonatal mouse lung infection model, lung histopathology; format: in vivo, mice
Protocol: We next assessed the morphological dynamics of PA14 infection in the presence of 2AA in a neonatal mouse lung infection model (Tang et al., Infection & Immunity 64:37-43, 1996), which is relevant to CF. A minimum inoculum of 1.5×10^5 PA14 cells/animal is 100% lethal in this model. Mice were treated with 2AA 4 days pre-infection, sacrificed at 24, 48, and 72 hr post-infection, and lung histopathology was assessed and compared to that of controls. PA14 infection alone produces rapidly developing inflammation that by 24 hr presents with red hepatization and development of lobular pneumonia. By 48 hours, the lung pathology includes most of the parenchyma with extensive formation of bacteria-filled necrotic foci (FIG. 12B). These observations are also consistent with our previous mortality studies using this lung model that indicate 100% mortality by 60 hr.

P. aeruginosa cells = format: cell-based, Pseudomonas aeruginosa; settings: 3 mM 2AA
[2] = probable ATP-binding component of ABC transporter

With `CC(=O)c1ccccc1N` [2AA, 2′-aminoacetophenone] the Bacterial growth (P. aeruginosa) was “only slightly retarded”, the HHQ production [1] was “no HHQ was produced” and the HQNO accumulation [1] was “higher accumulation of HQNO”. For the same compound, the PQS production [1] was “only a limited quantity of PQS was produced”, the “production of 3,4-dihydroxy-2-heptylquinoline (PQS)” value [1] was “decreased” and the “production of 4-hydroxy-2-heptylquinoline (HHQ)” value [1] was “decreased”. The “production of 4-hydroxy-2-heptylquinoline N-oxide (HQNO)” value [1] was “enhanced”, the “development of lung inflammation in response to PA14 infection” value (PA14; 2AA 4 days pre-infection) was “greatly delayed rates of development of inflammation” and the lung histopathology (PA14; PA14 infection 4 days post-2AA treatment, 48 hours (FIG. 12C)) was “Slight peribronchial infiltrate of inflammatory cells is present at 48 hours but no significant interstitial involvement”. The “genes whose expression was altered more than 2 fold” value (P. aeruginosa cells; harvested at OD600 of 3.0) was “approximately 1250 genes”, the genes downregulated (P. aeruginosa cells; more than 2 fold) was 1056 genes and the genes upregulated (P. aeruginosa cells; more than 2 fold) was 199 genes. The “FOLD CHANGE PA3569” value (P. aeruginosa cells; 3-hydroxyisobutyrate dehydrogenase mmsB) was −2.6 fold, the “FOLD CHANGE PA0999” value (P. aeruginosa cells; 3-oxoacyl-[acyl-carrier-protein] synthase III pqsD) was −5.2 fold and the “FOLD CHANGE PA2570” value (P. aeruginosa cells; PA-I galactophilic lectin) was −4.5 fold. The “FOLD CHANGE PA1001” value (P. aeruginosa cells; anthranilate synthase component I, phnA) was −6.2 fold, the “FOLD CHANGE PA1002” value (P. aeruginosa cells; anthranilate synthase component II, phnB) was −4.9 fold and the “FOLD CHANGE PA0905” value (P. aeruginosa cells; carbon storage regulator csrA) was −2.7 fold. For the same compound, the “FOLD CHANGE PA1457” value (P. aeruginosa cells; chemotaxis protein CheZ) was −2.1 fold, the “FOLD CHANGE PA2300” value (P. aeruginosa cells; chitinase) was −3.2 fold and the “FOLD CHANGE PA0122” value (P. aeruginosa cells; conserved hypothetical protein) was −3.4 fold. The “FOLD CHANGE PA0567” value (P. aeruginosa cells; conserved hypothetical protein) was −3.0 fold, the “FOLD CHANGE PA1914” value (P. aeruginosa cells; conserved hypothetical protein) was −26.3 fold and the “FOLD CHANGE PA2754” value (P. aeruginosa cells; conserved hypothetical protein) was −2.0 fold. For the same compound, the “FOLD CHANGE PA4739” value (P. aeruginosa cells; conserved hypothetical protein) was −3.7 fold, the “FOLD CHANGE PA3105” value (P. aeruginosa cells; general secretion pathway protein D) was −2.2 fold and the “FOLD CHANGE PA3101” value (P. aeruginosa cells; general secretion pathway protein G) was −3.4 fold. For the same compound, the “FOLD CHANGE PA3100” value (P. aeruginosa cells; general secretion pathway protein H) was −2.1 fold, the “FOLD CHANGE PA3099” value (P. aeruginosa cells; general secretion pathway protein I) was −2.2 fold and the “FOLD CHANGE PA3098” value (P. aeruginosa cells; general secretion pathway protein J) was −2.2 fold. The “FOLD CHANGE PA3096” value (P. aeruginosa cells; general secretion pathway protein L) was −2.8 fold, the “FOLD CHANGE PA3195” value (P. aeruginosa cells; glyceraldehyde 3-phosphate dehydrogenase) was −3.2 fold and the “FOLD CHANGE PA3126” value (P. aeruginosa cells; heat-shock protein IbpA) was −2.5 fold. For the same compound, the “FOLD CHANGE PA2194” value (P. aeruginosa cells; hydrogen cyanide synthase HcnB) was −3.5 fold, the “FOLD CHANGE PA2195” value (P. aeruginosa cells; hydrogen cyanide synthase HcnC) was −2.9 fold and the “FOLD CHANGE PA4205” value (P. aeruginosa cells; hypothetical protein MexG) was −6.1 fold. The “FOLD CHANGE PA0997” value (P. aeruginosa cells; hypothetical protein pqsB) was −4.6 fold, the “FOLD CHANGE PA0998” value (P. aeruginosa cells; hypothetical protein pqsC) was −5.4 fold and the “FOLD CHANGE PA1000” value (P. aeruginosa cells; hypothetical protein pqsE) was −4.3 fold. For the same compound, the “FOLD CHANGE PA1216” value (P. aeruginosa cells; hypothetical protein) was −2.7 fold, the “FOLD CHANGE PA1852” value (P. aeruginosa cells; hypothetical protein) was −2.3 fold and the “FOLD CHANGE PA2031” value (P. aeruginosa cells; hypothetical protein) was −2.0 fold. The “FOLD CHANGE PA2134” value (P. aeruginosa cells; hypothetical protein) was −2.5 fold, the “FOLD CHANGE PA2172” value (P. aeruginosa cells; hypothetical protein) was −2.4 fold and the “FOLD CHANGE PA2173” value (P. aeruginosa cells; hypothetical protein) was −2.3 fold. For the same compound, the “FOLD CHANGE PA2274” value (P. aeruginosa cells; hypothetical protein) was −3.7 fold, the “FOLD CHANGE PA2328” value (P. aeruginosa cells; hypothetical protein) was −4.5 fold and the “FOLD CHANGE PA2330” value (P. aeruginosa cells; hypothetical protein) was −11.7 fold. For the same compound, the “FOLD CHANGE PA2331” value (P. aeruginosa cells; hypothetical protein) was −10.9 fold, the “FOLD CHANGE PA2486” value (P. aeruginosa cells; hypothetical protein) was −2.3 fold and the “FOLD CHANGE PA3031” value (P. aeruginosa cells; hypothetical protein) was −3.1 fold. For the same compound, the “FOLD CHANGE PA3370” value (P. aeruginosa cells; hypothetical protein) was −2.2 fold, the “FOLD CHANGE PA3371” value (P. aeruginosa cells; hypothetical protein) was −2.1 fold and the “FOLD CHANGE PA3691” value (P. aeruginosa cells; hypothetical protein) was −7.0 fold. The “FOLD CHANGE PA4917” value (P. aeruginosa cells; hypothetical protein) was −2.1 fold, the “FOLD CHANGE PA3570” value (P. aeruginosa cells; methylmalonate-semialdehyde dehydrogenase) was −2.9 fold and the “FOLD CHANGE PA4876” value (P. aeruginosa cells; osmotically inducible lipoprotein OsmE) was −2.6 fold. For the same compound, the “FOLD CHANGE PA3186” value (P. aeruginosa cells; outer membrane porin OprB precursor) was −2.2 fold, the “FOLD CHANGE PA1901” value (P. aeruginosa cells; phenazine biosynthesis protein PhzC) was −3.4 fold and the “FOLD CHANGE PA1902” value (P. aeruginosa cells; phenazine biosynthesis protein PhzD) was −3.4 fold. For the same compound, the “FOLD CHANGE PA1903” value (P. aeruginosa cells; phenazine biosynthesis protein PhzE) was −3.1 fold, the “FOLD CHANGE PA2329” value (P. aeruginosa cells; [2]) was −9.8 fold and the “FOLD CHANGE PA3187” value (P. aeruginosa cells; [2]) was −2.6 fold. The “FOLD CHANGE PA4217” value (P. aeruginosa cells; probable FAD-dependent monooxygenase phzS1) was −5.4 fold, the “FOLD CHANGE PA4209” value (P. aeruginosa cells; probable O-methyltransferase phzM) was −2.4 fold and the “FOLD CHANGE PA4206” value (P. aeruginosa cells; probable RND efflux membrane fusion protein precursor mexH) was −5.9 fold. The “FOLD CHANGE PA4207” value (P. aeruginosa cells; probable RND efflux transporter mexI) was −7.5 fold, the “FOLD CHANGE PA2069” value (P. aeruginosa cells; probable carbamoyl transferase) was −2.5 fold and the “FOLD CHANGE PA0996” value (P. aeruginosa cells; probable coenzyme A ligase pqsA) was −3.0 fold. For the same compound, the “FOLD CHANGE PA2204” value (P. aeruginosa cells; probable component of ABC transporter) was −3.1 fold, the “FOLD CHANGE PA2067” value (P. aeruginosa cells; probable hydrolase) was −2.5 fold and the “FOLD CHANGE PA3812” value (P. aeruginosa cells; probable iron-binding protein IscA) was −5.9 fold. The “FOLD CHANGE PA3813” value (P. aeruginosa cells; probable iron-binding protein IscU) was −6.7 fold, the “FOLD CHANGE PA4208” value (P. aeruginosa cells; probable outer membrane efflux protein precursor, OpmD) was −6.8 fold and the “FOLD CHANGE PA3692” value (P. aeruginosa cells; probable outer membrane protein) was −4.7 fold. The “FOLD CHANGE PA3189” value (P. aeruginosa cells; probable permease of ABC sugar transporter) was −2.0 fold, the “FOLD CHANGE PA2327” value (P. aeruginosa cells; probable permease of ABC transporter) was −4.9 fold and the “FOLD CHANGE PA4210” value (P. aeruginosa cells; probable phenazine biosynthesis protein phzA1) was −3.3 fold. The “FOLD CHANGE PA4211” value (P. aeruginosa cells; probable phenazine biosynthesis protein phzB1) was −2.9 fold, the “FOLD CHANGE PA1904” value (P. aeruginosa cells; probable phenazine biosynthesis protein) was −3.6 fold and the “FOLD CHANGE PA1905” value (P. aeruginosa cells; probable pyridoxamine 5′-phosphate oxidase) was −3.4 fold. For the same compound, the “FOLD CHANGE PA4218” value (P. aeruginosa cells; probable transporter) was −5.3 fold, the “FOLD CHANGE PA0355” value (P. aeruginosa cells; protease pfpI) was −2.7 fold and the “FOLD CHANGE PA1456” value (P. aeruginosa cells; two-component response regulator CheY) was −2.3 fold.

Source: US20130209515A1, “ANTI-INFECTIVE AND IMMUNOMODULATORY COMPOUNDS” (priority 2005, published 2013)
